Measurements reported in PubChem BioAssay (NCI).
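GI50 marks 50% less growth. Definition used: TGI = concentration required for complete inhibition of growth.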

Key:
Test in all cases: NCI-60 cell line screen, 384-well format
K-562 leukemia = test system: K-562 leukemia
COLO 205 colon = test system: COLO 205 colon
SW-620 colon = test system: SW-620 colon
MDA-MB-231 breast = test system: MDA-MB-231 breast
LOX IMVI melanoma = test system: LOX IMVI melanoma
DU-145 prostate = test system: DU-145 prostate
SN12C renal = test system: SN12C renal
SNB-19 CNS = test system: SNB-19 CNS
OVCAR-4 ovarian = test system: OVCAR-4 ovarian
CCRF-CEM leukemia = test system: CCRF-CEM leukemia
NCI-H322M lung = test system: NCI-H322M lung
NCI/ADR-RES ovarian = test system: NCI/ADR-RES ovarian
HS 578T breast = test system: HS 578T breast
OVCAR-5 ovarian = test system: OVCAR-5 ovarian
SNB-75 CNS = test system: SNB-75 CNS
SK-MEL-2 melanoma = test system: SK-MEL-2 melanoma
UACC-257 melanoma = test system: UACC-257 melanoma
NCI-H522 lung = test system: NCI-H522 lung
A549 NSCLC = test system: A549 NSCLC
786-0 renal = test system: 786-0 renal
PC-3 prostate = test system: PC-3 prostate
ACHN renal = test system: ACHN renal
HCT-15 colon = test system: HCT-15 colon
CAKI-1 renal = test system: CAKI-1 renal
HT29 colon = test system: HT29 colon
TK-10 renal = test system: TK-10 renal
SF-268 CNS = test system: SF-268 CNS
A498 renal = test system: A498 renal
UACC-62 melanoma = test system: UACC-62 melanoma
HOP-62 NSCLC = test system: HOP-62 NSCLC
HCC-2998 colon = test system: HCC-2998 colon
SK-MEL-5 melanoma = test system: SK-MEL-5 melanoma
RPMI-8226 leukemia = test system: RPMI-8226 leukemia
UO-31 renal = test system: UO-31 renal
HCT-116 colon = test system: HCT-116 colon
NCI-H226 lung = test system: NCI-H226 lung
MALME-3M melanoma = test system: MALME-3M melanoma
U251 glioblastoma = test system: U251 glioblastoma
RXF 393 renal = test system: RXF 393 renal
EKVX NSCLC = test system: EKVX NSCLC
SK-OV-3 ovarian = test system: SK-OV-3 ovarian
HOP-92 NSCLC = test system: HOP-92 NSCLC
BT-549 breast = test system: BT-549 breast
T-47D breast = test system: T-47D breast
SF-539 CNS = test system: SF-539 CNS
SR leukemia = test system: SR leukemia
MDA-MB-435 melanoma = test system: MDA-MB-435 melanoma

## NC(=O)c1cccc2cn(-c3ccc([C@@H]4CCCNC4)cc3)nc12
K-562 leukemia
  GI50: 10.1 µM
  TGI: 21.8 µM
COLO 205 colon
  GI50: 11 µM
  TGI: 23.2 µM
SW-620 colon
  GI50: 6.05 µM
  TGI: 22.4 µM
MDA-MB-231 breast
  GI50: 14.7 µM
  TGI: 29 µM
LOX IMVI melanoma
  GI50: 7.47 µM
  TGI: 19.9 µM
DU-145 prostate
  GI50: 4.89 µM
  TGI: 16.1 µM
SN12C renal
  TGI: > 43.4 µM
SNB-19 CNS
  GI50: 18.3 µM
  TGI: > 54.2 µM
OVCAR-4 ovarian
  GI50: 25.2 µM
  TGI: 44.5 µM
CCRF-CEM leukemia
  GI50: 1.83 µM
  TGI: 3.71 µM
NCI-H322M lung
  GI50: 18.2 µM
  TGI: 34.1 µM
NCI/ADR-RES ovarian
  GI50: 13.5 µM
  TGI: 29.6 µM
HS 578T breast
  GI50: 10.1 µM
  TGI: 21.9 µM
OVCAR-5 ovarian
  GI50: 24 µM
  TGI: 59.6 µM
SNB-75 CNS
  GI50: 4.68 µM
  TGI: 16.5 µM
SK-MEL-2 melanoma
  GI50: 23.2 µM
  TGI: 37.9 µM
UACC-257 melanoma
  GI50: 16.8 µM
  TGI: 30.6 µM
NCI-H522 lung
  GI50: 15.1 µM
  TGI: 29 µM
A549 NSCLC
  GI50: 11.8 µM
  TGI: 24.5 µM
786-0 renal
  GI50: 12.7 µM
  TGI: 26.3 µM
PC-3 prostate
  GI50: 15.4 µM
  TGI: 46.6 µM
ACHN renal
  GI50: 9.72 µM
  TGI: 21.7 µM
HCT-15 colon
  GI50: 11.9 µM
  TGI: 24.8 µM
CAKI-1 renal
  GI50: 11.1 µM
  TGI: 23.3 µM
HT29 colon
  GI50: 13.4 µM
  TGI: 26.6 µM
TK-10 renal
  GI50: 16.2 µM
  TGI: 34 µM
SF-268 CNS
  GI50: 5.24 µM
  TGI: 20.1 µM
A498 renal
  GI50: 16.7 µM
  TGI: 30.5 µM
UACC-62 melanoma
  GI50: 12 µM
  TGI: 24.5 µM
HOP-62 NSCLC
  GI50: 3.12 µM
  TGI: 11.3 µM
HCC-2998 colon
  GI50: 14 µM
  TGI: 27.1 µM
SK-MEL-5 melanoma
  GI50: 7.81 µM
  TGI: 19.4 µM
RPMI-8226 leukemia
  GI50: 9.26 µM
  TGI: 23.1 µM
UO-31 renal
  GI50: 14 µM
  TGI: 27.7 µM
HCT-116 colon
  GI50: 4.73 µM
  TGI: 18.3 µM
NCI-H226 lung
  GI50: 12.5 µM
  TGI: 25.2 µM
MALME-3M melanoma
  GI50: 12.8 µM
  TGI: 25.6 µM
U251 glioblastoma
  GI50: 12.2 µM
  TGI: 25.1 µM
RXF 393 renal
  GI50: 16.7 µM
  TGI: 30.5 µM
EKVX NSCLC
  GI50: 17.7 µM
  TGI: 34.7 µM
SK-OV-3 ovarian
  GI50: 11.7 µM
  TGI: 28.8 µM
HOP-92 NSCLC
  GI50: 14.3 µM
  TGI: 28.3 µM
BT-549 breast
  GI50: 9.95 µM
  TGI: 22 µM
T-47D breast
  GI50: 12.6 µM
  TGI: 26.2 µM
SF-539 CNS
  GI50: 5.66 µM
  TGI: 18.2 µM
SR leukemia
  GI50: 0.805 µM
  TGI: 2.18 µM
MDA-MB-435 melanoma
  GI50: 17.5 µM
  TGI: 33.6 µM
